Five compounds from ChEMBL document CHEMBL3817769, “Expanding the chemical space of hydrophobic pharmacophores: the role of hydrophobic substructures in the development of novel transcription modulators” (2016) can be followed below.

The subject of this assay is HL-60. The assay is described as follows: Induction of differentiation in human HL60 cells after 20 mins by NBT reduction assay relative to retinoic acid. In kind it is functional. The arrangement: concentration or dose not given beside the values.
Take `CC(C)(C)c1cc(C(=O)/C=C/c2ccc(C(=O)O)cc2)cc(C(C)(C)C)c1`: the Activity amounted to 640%. In the case of `CC(C)(C)c1cc(C(=O)Nc2ccc(C(=O)O)cc2)cc(C(C)(C)C)c1`, the Activity is reported as 5.6%. Take “4-[3-(2,5-Bis-trimethylgermanyl-phenyl)-3-oxo-propenyl]-benzoic acid (Ch55G)”: the Activity amounted to 1000%. For `C[Si](C)(C)c1cc(C(=O)Nc2ccc(C(=O)O)cc2)cc([Si](C)(C)C)c1` [AMSILAROTENE], the Activity stood at 53%. The compound `C[Si](C)(C)c1cc(C(=O)/C=C/c2ccc(C(=O)O)cc2)cc([Si](C)(C)C)c1` gave an Activity of 860%.
